For one assay, the target named is T1, mPDE10A7 (Mus musculus, UniProt Q8CA95).
T1 sequence (Q8CA95 446-763 limits assumed): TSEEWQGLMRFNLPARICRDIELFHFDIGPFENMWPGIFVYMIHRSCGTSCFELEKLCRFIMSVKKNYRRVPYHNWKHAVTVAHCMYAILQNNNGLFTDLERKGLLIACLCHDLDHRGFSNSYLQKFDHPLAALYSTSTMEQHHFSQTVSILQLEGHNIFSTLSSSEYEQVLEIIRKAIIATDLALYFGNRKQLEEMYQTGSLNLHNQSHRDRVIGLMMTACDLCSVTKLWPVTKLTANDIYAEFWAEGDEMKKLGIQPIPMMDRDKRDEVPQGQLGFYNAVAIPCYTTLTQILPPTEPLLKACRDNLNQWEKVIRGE
Put plainly: mPDE10A7 enzyme inhibition (IMAP fluorescence polarization). It is filed as biochemical. The following applies: Table 3; fluorescein labeled cAMP or cGMP substrate. Here is the method: Enzyme Activity: To analyze the enzyme activity, 5 μL of serial diluted mPDE10A7 containing lysate were incubated with equal volumes of diluted (100-fold) fluorescein labeled cAMP or cGMP for 30 minutes in MDC HE 96-well assay plates at room temperature. Both the enzyme and the substrates were diluted in the following assay buffer: Tris/HCl (pH 8.0) 50 mM, MgCl2 5 mM, 2-mercaptoethanol 4 mM, BSA 0.33 mg/mL. After incubation, the reaction was stopped by adding 20 μL of diluted (400-fold) binding reagents and was incubated for an hour at room temperature. The plates were counted in an Analyst GT (Molecular Devices) for fluorescence polarization. An IMAP Assay kit (Molecular Device) was used to assess enzyme properties of mPDE10A7. Data were analyzed with SoftMax Pro.
Enzyme Inhibition: To check the inhibition profile, 10 μL of serial diluted compounds were incubated with 30 μl of diluted PDE enzymes in a 96-well polystyrene assay plate for 30 minutes at room temperature. After incubation, 5 μL of the compound-enzyme mixture were aliquoted into a MDC HE black plate, mixed with 5 μl of 100-fold diluted fluorescein labeled substrates (cAMP or cGMP), and incubated for 30 minutes at room temperature. The reaction was stopped by adding 20 μL of diluted binding reagents and counted in an Analyst GT for fluorescence polarization. The data were analyzed with SoftMax Pro.
Background: Fluorescence polarisation rises when a labelled molecule tumbles more slowly, as on binding a larger partner.
A word on the IC50: it is the concentration needed to halve the response being measured. A high value points to a need for much substance. The compound `COc1cc2nncc(N3CCC(c4ccccc4)C3)c2cc1OC` (racemic) [Cpd 12, 6,7-dimethoxy-4-(3-phenylpyrrolidin-1-yl)cinnoline] came in with a concentration for half-maximal inhibition (IC50) of 261 nM. Still for that read-out and setting: the value for `COc1cc2nncc(N3CCCC(C(=O)N4CCCC4)C3)c2cc1OC` (racemic) [Cpd 32, 6,7-Dimethoxy-4-[3-(pyrrolidin-1-ylcarbonyl)piperidin-1-yl]cinnoline] was 402 nM; that for `COc1cc2nncc(N3CCCC(Oc4ccccc4)C3)c2cc1OC` (racemic) [Cpd 37] was 113 nM; that for `COc1cc2nncc(N3CCOC(c4ccc5c(c4)CCO5)C3)c2cc1OC` (racemic) [Cpd 38] was 6.49 nM. Still for that read-out and setting: as for `COc1cc2nncc(N3CCCC(C(=O)N4CCCCC4)C3)c2cc1OC` (racemic) [Cpd 39], the figure is 378 nM; as for `COc1cc2nncc(N3CC(c4ccc(Cl)cc4)OCC3=O)c2cc1OC` (racemic) [Cpd 40], 427 nM. The same measure, in the same setting: the value for `COc1cccc(C2CN(c3cnnc4cc(OC)c(OC)cc34)C(=O)CO2)c1` (racemic) [Cpd 52, 4-(6,7-dimethoxycinnolin-4-yl)-6-(3-methoxyphenyl)morpholin-3-one] was 310 nM.

`COc1cc2nncc(N3CCCC(CN4CCCC4=O)C3)c2cc1OC` (racemic) [Cpd 62, 1-{[1-(6,7-dimethoxycinnolin-4-yl)piperidin-3-yl]methyl}pyrrolidin-2-one]: the IC50 stood at 337 nM. On the same count and under the same terms, the value for `COc1cc2nncc(N3CCOC(c4ccc(OC(F)(F)F)cc4)C3)c2cc1OC` (racemic) [Cpd 63] was 29.2 nM. The same measure, in the same setting: as for `COc1ccc(C2CN(c3cnnc4cc(OC)c(OC)cc34)CC(=O)N2C)cc1` (racemic) [Cpd 65], the figure is 46.1 nM; as for `COc1cc2nncc(N3CCOC(c4ccc(O)cc4)C3)c2cc1OC` (racemic) [Cpd 74], 3.84 nM; as for `COc1ccc2cc(C3CN(c4cnnc5cc(OC)c(OC)cc45)CCN3)ccc2c1` (racemic) [Cpd 86], 1.33 nM. The same measure, in the same setting: as for `COc1cc2nncc(N3CCOC(c4ccc(C)cc4F)C3)c2cc1OC` (racemic) [Cpd 88], the figure is 57.8 nM; as for `COc1cc2nncc(N3CCNC(c4cccs4)C3)c2cc1OC` (racemic) [Cpd 93], 7.84 nM.

`COc1cc2nncc(N3CCNC(c4ccc(N(C)C)cc4)C3)c2cc1OC` (racemic) [Cpd 94] displayed a concentration for half-maximal inhibition (IC50) of 1.6 nM. On the same count and under the same terms, the value for `COc1cc2nncc(N3CCOC(c4ccccc4C)C3)c2cc1OC` (racemic) [Cpd 96] was 14.1 nM. With `COc1ccc(CC2CCN(c3cnnc4cc(OC)c(OC)cc34)C2)cc1` (racemic) [Cpd 98], the IC50 came to 26.6 nM. Compound `CC[C@@H]1CN(c2cnnc3cc(OC)c(OC)cc23)C[C@@H](c2ccc(OC)cc2)O1` (racemic) [Cpd 100] came in with an IC50 of 3.57 nM.

As to `COc1cc2nncc(N3CCCC(NC(=O)c4ccccc4F)C3)c2cc1OC` (racemic) [Cpd 102], 35.1 nM corresponded to half-maximal inhibition (IC50). In turn, `COc1cc2nncc(N3CCNC(c4cccc5ccccc45)C3)c2cc1OC` (racemic) [Cpd 103] gave a half-inhibitory concentration (IC50) of 12 nM. The same measure, in the same setting: as for `COc1cc2nncc(N3CCCC(C4CCCCC4)C3)c2cc1OC` (racemic) [Cpd 104], the figure is 263 nM. `COc1cc2nncc(N3CCNC(c4cc(OCc5ccccc5)cc(OCc5ccccc5)c4)C3)c2cc1OC` (racemic) [Cpd 118] displayed an IC50 of 160 nM. Still for that read-out and setting: as for `COc1cc(OC)cc(C(=O)NC2CCCN(c3cnnc4cc(OC)c(OC)cc34)C2)c1` (racemic) [Cpd 121], the figure is 16.3 nM; as for `COc1cc2nncc(-c3nc4ccccc4o3)c2cc1OC` [Cpd 1, 4-(1,3-benzoxazol-2-yl)-6,7-dimethoxycinnoline hydroformate], 218 nM; as for `COc1cc2nncc(-n3nc(C(=O)NC4CC4)c4ccccc43)c2cc1OC` [Cpd 3, N-cyclopropyl-1-(6,7-dimethoxycinnolin-4-yl)-1H-indazole-3-carboxamide hydroformate], 141 nM. On the same count and under the same terms, as for `COc1cc2nncc(-c3ccc4c(c3)OCCN4C)c2cc1OC` [Cpd 8, 7-(6,7-dimethoxycinnolin-4-yl)-4-methyl-3,4-dihydro-2H-1,4-benzoxazine], the figure is 23 nM. Consider `COCCOc1ccc2cnn(-c3cnnc4cc(OC)c(OC)cc34)c2c1` [Cpd 19, 6,7-Dimethoxy-4-[6-(2-methoxyethoxy)-1H-indazol-1-yl]cinnoline], for which the IC50 came to 140 nM.

Compound `COc1cc2nncc(-n3ncc4ccc(N5CCOCC5)cc43)c2cc1OC` [Cpd 21, 6,7-dimethoxy-4-(6-morpholin-4-yl-1H-indazol-1-yl)cinnoline] returned an IC50 of 554 nM.

Consider `CCN1CCN(c2cccc3c2cnn3-c2cnnc3cc(OC)c(OC)cc23)CC1` [Cpd 48], for which the IC50 stood at 28.8 nM. Compound `COc1cc2nncc(-n3ncc4c(N5CCN(CC6CC6)CC5)cccc43)c2cc1OC` [Cpd 50, 4-{4-[4-(cyclopropylmethyl)piperazin-1-yl]-1H-indazol-1-yl}-6,7-dimethoxycinnoline] had an IC50 of 63.1 nM.

The compound `COc1cc2nncc(N3CCCC(n4ccccc4=O)C3)c2cc1OC` (stereo not shown) [Cpd 51] had an IC50 of 152 nM. Same read-out and setting: the value for `COc1cc2nncc(N3CCCC(c4nc(C)no4)C3)c2cc1OC` (stereo not shown) [Cpd 56] was 190 nM; that for `COc1ccc(C2(O)CCCN(c3cnnc4cc(OC)c(OC)cc34)C2)cc1` (stereo not shown) [Cpd 64] was 19.2 nM. As for `COc1cc2nncc(N3CCC[C@@H](c4ccccc4F)C3)c2cc1OC` [Cpd 67], the half-maximal inhibitory concentration (IC50) worked out at 7.01 nM. Compound `CCN(C)c1cccc2c1cnn2-c1cnnc2cc(OC)c(OC)cc12` [Cpd 72] returned a half-maximal inhibitory concentration (IC50) of 44 nM. The same measure, in the same setting: the value for `COc1cc2nncc(-n3ncc4c(N5CCCC5)cccc43)c2cc1OC` [Cpd 73, 6,7-dimethoxy-4-(4-pyrrolidin-1-yl-1H-indazol-1-yl)cinnoline] was 96.1 nM; that for `COc1cc2nncc(-c3ccc4c(c3)N(C)C(=O)C4(C)C)c2cc1OC` [Cpd 76] was 18.7 nM; that for `COc1ccc(CNC2CCN(c3cnnc4cc(OC)c(OC)cc34)CC2)cc1` [Cpd 78, 1-(6,7-dimethoxycinnolin-4-yl)-N-(4-methoxybenzyl)piperidin-4-amine] was 1390 nM. Same read-out and setting: the value for `COc1cc2nncc(N3CCC(N4CCCC4=O)CC3)c2cc1OC` [Cpd 85] was 286 nM; that for `COc1ccc(N2CCC=C(c3cnnc4cc(OC)c(OC)cc34)C2)cc1` [Cpd 101] was 6.51 nM. The same measure, in the same setting: as for `COc1cc2nncc(-n3ncc4c(N5CCN(C(C)=O)CC5)cccc43)c2cc1OC` [Cpd 106], the figure is 16 nM. In turn, `COc1cc2nncc(N3CCCC(N(C)C(=O)c4ccccc4)C3)c2cc1OC` (stereo not shown) [Cpd 107] registered an IC50 of 58.4 nM. The compound `COc1cc2nncc(N3CCO[C@@H](c4ccc(C)cc4F)C3)c2cc1OC` [Cpd 110] yielded an IC50 of 2.86 nM. Compound `COc1ccc2cc([C@@H]3CN(c4cnnc5cc(OC)c(OC)cc45)CCN3)ccc2c1` [Cpd 111] displayed an IC50 of 10.3 nM. In turn, `COc1cc2nncc(-n3ncc4c(Br)cccc43)c2cc1OC` [Cpd 113, 4-(4-bromo-1H-indazol-1-yl)-6,7-dimethoxycinnoline] showed an IC50 of 152 nM.

Still in this assay, the particulars now being: Table 4; fluorescein labeled cAMP or cGMP substrate.
Compound `COc1ccc(C2CN(c3cnnc4cc(O)c(OC)cc34)CCO2)cc1` (racemic) [compound 127] yielded a half-inhibitory concentration (IC50) of 145 nM.

These data come from US20070265270A1, “Cinnoline derivatives as phosphodiesterase 10 inhibitors” (priority 2006, published 2007).
